Measurements from patent publication US12157730B2, “Heteroaryl derivative, method for producing same, and pharmaceutical composition comprising same as effective component” (VORONOI INC., priority 2019, dated 2024).

Target: T1, Ba/F3 cell EGFR Exon20 ins NPH (Homo sapiens, UniProt P00533, INS773NPH)
T1 construct: expressed in transfected cells; host or cells: Ba/F3
Test: Ba/F3 cell proliferation suppression, EGFR Exon20 ins NPH
Type: cell-based
Conditions: GI50 class; Ba/F3 cell line with NPH inserted at Exon20 of EGFR; 72 hours
Method in brief: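 Cells (3000–5000/well) plated 24 h before compound, 12-point 3-fold dilutions at 0.3 nM to 50 um final; Ba/F3 lines grown with 5 ng/ml IL-3. Viability by CellTiter-Glo luminescence after 72 h, growth ratio vs control, GI50 from curves; triplicate.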

| Compound | Ba/F3 (NPH) Activity |
| --- | --- |
| C=CC(=O)Nc1cc(Nc2cc(N3OCC[C@@H]3c3cc(F)cc(F)c3)ncn2)c(OC)cc1N1CCC(N2C[C@@H](C)O[C@@H](C)C2)CC1 [Example 266, N-(5-((6-((R)-3-(3,5-difluorophenyl)isoxazolidine-2-yl)pyrimidine-4-yl)amino)-2-(4-((2S,6R)-2,6-dimethylmorpholino)piperidine-1-yl)-4-methoxyphenyl) acrylamide] | A (GI50 < 50 nM) |
| C=CC(=O)Nc1cc(Nc2cc(N3OCC[C@@H]3c3cc(F)ccc3F)ncn2)c(OC)cc1-n1ccnc1C [compound 330, N-(5-((6-((R)-3-(2,5-difluorophenyl)isoxazolidine-2-yl)pyrimidine-4-yl)amino)-4-methoxy-2-(2-methyl-1H-imidazole-1-yl)phenyl)acrylamide] | A (GI50 < 50 nM) |
| C=CC(=O)Nc1cc(Nc2cc(N3OCC[C@@H]3c3ccc(Cl)cc3F)ncn2)c(OC)cc1N1CCN(CC)CC1 [compound 401, N-(5-((6-((R)-3-(4-chloro-2-fluorophenyl)isoxazolidine-2-yl)pyrimidine-4-yl)amino)-2-(4-ethylpiperazine-1-yl)-4-methoxyphenyl) acrylamide] | A (GI50 < 50 nM) |
| C=CC(=O)Nc1cc(Nc2cc(N3OCC[C@@H]3c3cccc(F)c3Cl)ncn2)c(OC)cc1N1CCC(N2CCOCC2)CC1 [compound 598, N-(5-((6-((R)-3-(2-chloro-3-fluorophenyl)isoxazolidine-2-yl)pyrimidine-4-yl)amino)-4-methoxy-2-(4-morpholinopiperidine-1-yl)phenyl)acrylamide] | A (GI50 < 50 nM) |
| C=CC(=O)Nc1cc(Nc2cc(N3OCC[C@@H]3c3ccc(F)cc3)ncn2)c(OC)cc1N1CCC(N2CCN(C3CC3)CC2)CC1 [Example 66, N-(2-(4-(4-cyclopropylpiperazine-1-yl)piperidine-1-yl)-5-((6-((R)-3-(4-fluorophenyl)isoxazolidine-2-yl)pyrimidine-4-yl)amino)-4-methoxyphenyl) acrylamide] | A (GI50 < 50 nM) |
| C=CC(=O)Nc1cc(Nc2cc(N3OCC[C@@H]3c3ccc(C)nc3)ncn2)c(OC)cc1N1C[C@H]2C[C@@H]1CN2CC [Example 51, N-(2-((1R,4R)-5-ethyl-2,5-diazabicyclo [2.2.1]heptane-2-yl)-4-methoxy-5-((6-((R)-3-(6-methylpyridine-3-yl)isoxazolidine-2-yl)pyrimidine-4-yl)amino)phenyl) acrylamide] | C (500 nM ≤ GI50 < 5000 nM) |
| C=CC(=O)Nc1cc(Nc2cc(N3OCC[C@@H]3c3ccc(Cl)cc3F)ncn2)c(OC)cc1N1CCC(N2C[C@H]3C[C@@H]2CO3)CC1 [compound 548, N-(2-(4-((1R,4R)-2-oxa-5-azabicyclo[2.2.1]heptane-5-yl)piperidine-1-yl)-5-((6-((R)-3-(4-chloro-2-fluorophenyl)isoxazolidine-2-yl)pyrimidine-4-yl)amino)-4-methoxyphenyl) acrylamide] | A (GI50 < 50 nM) |
| C=CC(=O)Nc1cc(Nc2cc(N3OCC[C@@H]3c3cccc(F)c3)ncn2)c(OC)cc1N1CC[C@H](N2CCOCC2)C1 [compound 321, N-(5-((6-((R)-3-(3-fluorophenyl)isoxazolidine-2-yl)pyrimidine-4-yl)amino)-4-methoxy-2-((S)-3-morpholinopyrolidine-1-yl)phenyl)acrylamide] | B (50 nM ≤ GI50 < 500 nM) |
| C=CC(=O)Nc1cc(Nc2cc(N3OCC[C@@H]3c3ccc(F)c(F)c3F)ncn2)c(OC)cc1N1CCC(N2CCN(C3CC3)CC2)CC1 [Example 170, N-(2-(4-(4-cyclopropylpiperazine-1-yl)piperidine-1-yl)-4-methoxy-5-((6-((R)-3-(2,3,4-trifluorophenyl)isoxazolidine-2-yl)pyrimidine-4-yl)amino)phenyl)acrylamide] | A (GI50 < 50 nM) |
| C=CC(=O)Nc1cc(Nc2cc(N3OCC[C@@H]3c3cccc(F)c3Cl)ncn2)c(OC)cc1N1CCN(C)CC1 [compound 552, N-(5-((6-((R)-3-(2-chloro-3-fluorophenyl)isoxazolidine-2-yl)pyrimidine-4-yl)amino)-4-methoxy-2-(4-methylpiperazine-1-yl)phenyl)acrylamide] | A (GI50 < 50 nM) |
| C=CC(=O)Nc1cc(Nc2cc(N3OCC[C@@H]3c3ccc(Cl)c(F)c3)ncn2)c(OC)cc1N1CCC(N2C[C@H]3C[C@@H]2CO3)CC1 [Example 256, N-(2-(4-((1R,4R)-2-oxa-5-azabicyclo[2.2.1]heptane-5-yl)piperidine-1-yl)-5-((6-((R)-3-(4-chloro-3-fluorophenyl)isoxazolidine-2-yl)pyrimidine-4-yl)amino)-4-methoxyphenyl) acrylamide] | A (GI50 < 50 nM) |
| C=CC(=O)Nc1cc(Nc2cc(N3OCC[C@@H]3Cc3ccccc3)ncn2)c(OC)cc1N1CCC(N2CCN(C3CC3)CC2)CC1 [compound 955, N-(5-((6-((S)-3-benzylisoxazolidine-2-yl)pyrimidine-4-yl)amino)-2-(4-(4-cyclopropylpiperazine-1-yl)piperidine-1-yl)-4-methoxyphenyl) acrylamide] | A (GI50 < 50 nM) |
| C=CC(=O)Nc1cc(Nc2cc(N3OCC[C@@H]3Cc3cccc(Cl)c3Cl)ncn2)c(OC)cc1N(C)CCN(C)C [compound 982, N-(5-((6-((S)-3-(2,3-dichlorobenzyl)isoxazolidine-2-yl)pyrimidine-4-yl)amino)-2-((2-(dimethylamino)ethyl)(methyl)amino)-4-methoxyphenyl) acrylamide] | A (GI50 < 50 nM) |
| C=CC(=O)Nc1cc(Nc2cc(N3OCC[C@H]3c3c(F)ccc(F)c3F)ncn2)c(OC)cc1N1CCC(N2CCN(C3CC3)CC2)CC1 [compound 937, N-(2-(4-(4-cyclopropylpiperazine-1-yl)piperidine-1-yl)-4-methoxy-5-((6-((S)-3-(2,3,6-trifluorophenyl)isoxazolidine-2-yl)pyrimidine-4-yl)amino)phenyl)acrylamide] | B (50 nM ≤ GI50 < 500 nM) |
| C=CC(=O)Nc1cc(Nc2cc(N3OCC[C@@H]3c3cccc4ccccc34)ncn2)c(OC)cc1N1CCC(N2CCN(C3CC3)[C@@H](C)C2)CC1 [Example 156, N-(2-(4-((S)-4-cyclopropyl-3-methylpiperazine-1-yl)piperidine-1-yl)-4-methoxy-5-((6-((R)-3-(naphthalene-1-yl)isoxazolidine-2-yl)pyrimidine-4-yl)amino)phenyl)acrylamide] | A (GI50 < 50 nM) |
| C=CC(=O)Nc1cc(Nc2cc(N3OCC[C@@H]3c3cccc(F)c3F)ncn2)c(OC)cc1N1CCC(N2CCN(C3CC3)CC2)CC1 [Example 127, N-(2-(4-(4-cyclopropylpiperazine-1-yl)piperidine-1-yl)-5-((6-((R)-3-(2,3-difluorophenyl)isoxazolidine-2-yl)pyrimidine-4-yl)amino)-4-methoxyphenyl) acrylamide] | A (GI50 < 50 nM) |
| C=CC(=O)Nc1cc(Nc2cc(N3OCC[C@@H]3Cc3ccccc3)ncn2)c(OC)cc1N1CCC(OCCN(CC)CC)CC1 [compound 978, N-(5-((6-((S)-3-benzylisoxazolidine-2-yl)pyrimidine-4-yl)amino)-2-(4-(2-(diethylamino)ethoxy)piperidine-1-yl)-4-methoxyphenyl) acrylamide] | C (500 nM ≤ GI50 < 5000 nM) |
